Experimental data published in PubChem BioAssay (NCI).
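Results reflect a 48-hour exposure of cells in 96-well plates to compound at five concentrations. Here, GI50 denotes the concentration required for 50% inhibition of growth. TGI denotes the concentration required for complete inhibition of growth.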

How the values were obtained:
Assay in all cases: growth of human tumour cells (NCI), 48 h
RPMI-8226 leukemia = tested on: RPMI-8226 leukemia
HS 578T breast = tested on: HS 578T breast
MOLT-4 leukemia = tested on: MOLT-4 leukemia
UO-31 renal = tested on: UO-31 renal
NCI/ADR-RES ovarian = tested on: NCI/ADR-RES ovarian
A498 renal = tested on: A498 renal
HL-60(TB) leukemia = tested on: HL-60(TB) leukemia
786-0 renal = tested on: 786-0 renal
OVCAR-5 ovarian = tested on: OVCAR-5 ovarian
A549 NSCLC = tested on: A549 NSCLC
NCI-H460 lung = tested on: NCI-H460 lung
HOP-62 NSCLC = tested on: HOP-62 NSCLC
OVCAR-3 ovarian = tested on: OVCAR-3 ovarian
SK-MEL-28 melanoma = tested on: SK-MEL-28 melanoma
U251 CNS = tested on: U251 CNS
BT-549 breast = tested on: BT-549 breast
SK-OV-3 ovarian = tested on: SK-OV-3 ovarian
SW-620 colon = tested on: SW-620 colon
NCI-H23 lung = tested on: NCI-H23 lung
KM12 colon = tested on: KM12 colon
EKVX NSCLC = tested on: EKVX NSCLC
HCC-2998 colon = tested on: HCC-2998 colon
NCI-H522 lung = tested on: NCI-H522 lung
MDA-MB-231 breast = tested on: MDA-MB-231 breast
SF-539 CNS = tested on: SF-539 CNS
COLO 205 colon = tested on: COLO 205 colon
OVCAR-8 ovarian = tested on: OVCAR-8 ovarian
CCRF-CEM leukemia = tested on: CCRF-CEM leukemia
IGROV1 ovarian = tested on: IGROV1 ovarian
K-562 leukemia = tested on: K-562 leukemia
DU-145 prostate = tested on: DU-145 prostate
SF-295 CNS = tested on: SF-295 CNS
UACC-257 melanoma = tested on: UACC-257 melanoma
SK-MEL-2 melanoma = tested on: SK-MEL-2 melanoma
HOP-92 NSCLC = tested on: HOP-92 NSCLC
OVCAR-4 ovarian = tested on: OVCAR-4 ovarian
UACC-62 melanoma = tested on: UACC-62 melanoma
NCI-H226 lung = tested on: NCI-H226 lung
CAKI-1 renal = tested on: CAKI-1 renal
HT29 colon = tested on: HT29 colon
HCT-116 colon = tested on: HCT-116 colon
MCF7 breast = tested on: MCF7 breast
RXF 393 renal = tested on: RXF 393 renal
PC-3 prostate = tested on: PC-3 prostate
SK-MEL-5 melanoma = tested on: SK-MEL-5 melanoma
SNB-19 CNS = tested on: SNB-19 CNS
SN12C renal = tested on: SN12C renal
HCT-15 colon = tested on: HCT-15 colon
SF-268 CNS = tested on: SF-268 CNS
SNB-75 CNS = tested on: SNB-75 CNS
T-47D breast = tested on: T-47D breast
ACHN renal = tested on: ACHN renal
TK-10 renal = tested on: TK-10 renal
M14 melanoma = tested on: M14 melanoma
MDA-MB-435 = tested on: MDA-MB-435
LOX IMVI melanoma = tested on: LOX IMVI melanoma

For COc1ccc(OC)c(/C=C/C(=O)c2ccc(SC)cc2)c1, the GI50 (RPMI-8226 leukemia) was 1.66 µM, the TGI (RPMI-8226 leukemia) was 7.05 µM and the GI50 (HS 578T breast) was 3.81 µM. For the same compound, the TGI (HS 578T breast) was > 100 µM, the GI50 (MOLT-4 leukemia) was 3.26 µM and the TGI (MOLT-4 leukemia) was > 100 µM. It also gave a GI50 (UO-31 renal) of 15.5 µM, a TGI (UO-31 renal) of 30.7 µM and a GI50 (NCI/ADR-RES ovarian) of 3.28 µM. It also gave a TGI (NCI/ADR-RES ovarian) of 11.8 µM, a GI50 (A498 renal) of 13.7 µM and a TGI (A498 renal) of 30.3 µM. The GI50 (HL-60(TB) leukemia) was 3.65 µM, the TGI (HL-60(TB) leukemia) was 12.6 µM and the GI50 (786-0 renal) was 7.53 µM. The TGI (786-0 renal) was 21.6 µM, the GI50 (OVCAR-5 ovarian) was 18.3 µM and the TGI (OVCAR-5 ovarian) was 36.4 µM. The GI50 (A549 NSCLC) was 28.9 µM, the TGI (A549 NSCLC) was > 100 µM and the GI50 (NCI-H460 lung) was 3.82 µM. The TGI (NCI-H460 lung) was 17.6 µM, the GI50 (HOP-62 NSCLC) was 18.4 µM and the TGI (HOP-62 NSCLC) was 52.3 µM. For the same compound, the GI50 (OVCAR-3 ovarian) was 0.0897 µM, the TGI (OVCAR-3 ovarian) was 2.7 µM and the GI50 (SK-MEL-28 melanoma) was 10.1 µM. The TGI (SK-MEL-28 melanoma) was 51.1 µM, the GI50 (U251 CNS) was 12.7 µM and the TGI (U251 CNS) was 26.9 µM. It also gave a GI50 (BT-549 breast) of 2.8 µM, a TGI (BT-549 breast) of 7.01 µM and a GI50 (SK-OV-3 ovarian) of 8.07 µM. For the same compound, the TGI (SK-OV-3 ovarian) was > 100 µM, the GI50 (SW-620 colon) was 3.45 µM and the TGI (SW-620 colon) was > 100 µM. For the same compound, the GI50 (NCI-H23 lung) was 2.77 µM, the TGI (NCI-H23 lung) was 7.6 µM and the GI50 (KM12 colon) was 4.9 µM. It also gave a TGI (KM12 colon) of 27.7 µM, a GI50 (EKVX NSCLC) of 16.8 µM and a TGI (EKVX NSCLC) of 39.4 µM. It also gave a GI50 (HCC-2998 colon) of 4.81 µM, a TGI (HCC-2998 colon) of 17.1 µM and a GI50 (NCI-H522 lung) of 6.91 µM. For the same compound, the TGI (NCI-H522 lung) was 23.4 µM, the GI50 (MDA-MB-231 breast) was 54 µM and the TGI (MDA-MB-231 breast) was > 100 µM. It also gave a GI50 (SF-539 CNS) of 2.55 µM, a TGI (SF-539 CNS) of 6.99 µM and a GI50 (COLO 205 colon) of 5.57 µM. The TGI (COLO 205 colon) was > 100 µM, the GI50 (OVCAR-8 ovarian) was 24.3 µM and the TGI (OVCAR-8 ovarian) was 68.7 µM. It also gave a GI50 (CCRF-CEM leukemia) of 2.22 µM, a TGI (CCRF-CEM leukemia) of 13.8 µM and a GI50 (IGROV1 ovarian) of 11 µM. For the same compound, the TGI (IGROV1 ovarian) was 27.1 µM, the GI50 (K-562 leukemia) was 2.72 µM and the TGI (K-562 leukemia) was 7.44 µM. It also gave a GI50 (DU-145 prostate) of 4.37 µM, a TGI (DU-145 prostate) of 18.3 µM and a GI50 (SF-295 CNS) of 5.05 µM. The TGI (SF-295 CNS) was 57 µM, the GI50 (UACC-257 melanoma) was 16.9 µM and the TGI (UACC-257 melanoma) was 33.8 µM. For the same compound, the GI50 (SK-MEL-2 melanoma) was 6.12 µM, the TGI (SK-MEL-2 melanoma) was 20.4 µM and the GI50 (HOP-92 NSCLC) was 6 µM. The TGI (HOP-92 NSCLC) was > 100 µM, the GI50 (OVCAR-4 ovarian) was 61.1 µM and the TGI (OVCAR-4 ovarian) was > 100 µM. The GI50 (UACC-62 melanoma) was 15 µM, the TGI (UACC-62 melanoma) was 29.1 µM and the GI50 (NCI-H226 lung) was 28.9 µM. The TGI (NCI-H226 lung) was 88.4 µM, the GI50 (CAKI-1 renal) was 2.39 µM and the TGI (CAKI-1 renal) was 18.5 µM. For the same compound, the GI50 (HT29 colon) was 3.89 µM, the TGI (HT29 colon) was > 100 µM and the GI50 (HCT-116 colon) was 2.57 µM. For the same compound, the TGI (HCT-116 colon) was 7.77 µM, the GI50 (MCF7 breast) was 3.98 µM and the TGI (MCF7 breast) was 12.8 µM. The GI50 (RXF 393 renal) was 16.2 µM, the TGI (RXF 393 renal) was 37.3 µM and the GI50 (PC-3 prostate) was 3.49 µM. It also gave a TGI (PC-3 prostate) of 14.9 µM, a GI50 (SK-MEL-5 melanoma) of 3.31 µM and a TGI (SK-MEL-5 melanoma) of 14 µM. For the same compound, the GI50 (SNB-19 CNS) was 9.68 µM, the TGI (SNB-19 CNS) was 46.5 µM and the GI50 (SN12C renal) was 17.2 µM. For the same compound, the TGI (SN12C renal) was 33.9 µM, the GI50 (HCT-15 colon) was 13.8 µM and the TGI (HCT-15 colon) was 36.6 µM. It also gave a GI50 (SF-268 CNS) of 2.58 µM, a TGI (SF-268 CNS) of 7.46 µM and a GI50 (SNB-75 CNS) of 8.88 µM. The TGI (SNB-75 CNS) was > 100 µM, the GI50 (T-47D breast) was 18.1 µM and the TGI (T-47D breast) was > 100 µM. The GI50 (ACHN renal) was 17.2 µM, the TGI (ACHN renal) was 38.4 µM and the GI50 (TK-10 renal) was 17.9 µM. The TGI (TK-10 renal) was 65.7 µM, the GI50 (M14 melanoma) was 12.6 µM and the TGI (M14 melanoma) was 27.1 µM. For the same compound, the GI50 (MDA-MB-435) was 2.09 µM, the TGI (MDA-MB-435) was 8.91 µM and the GI50 (LOX IMVI melanoma) was 12.3 µM. It also gave a TGI (LOX IMVI melanoma) of 28 µM.
